One compound from ChEMBL document CHEMBL4330132, “5-Keto-3-cyano-2,4-diaminothiophenes as selective maternal embryonic leucine zipper kinase inhibitors” (Bioorg Med Chem Lett, 2019) can be followed below.

The subject of experiment [1] is Tyrosine-protein kinase ABL1 (Homo sapiens), P00519 [T315I]. The experiment is described as follows: Binding affinity to human non-phosphorylated ABL1 T315I mutant (S229 to K512 residues) expressed in mammalian expression system assessed as residual binding level at 1 uM by Kinomescan method relative to control.
Experiment [2] concerns the target Calcium/calmodulin-dependent protein kinase type II subunit gamma (Homo sapiens) (UniProt Q13555). Put plainly: Binding affinity to wild-type human partial length CAMK2G (R9 to A303 residues) expressed in bacterial expression system assessed as residual binding level at 1 uM by Kinomescan method relative to control.
The target in experiment [3] is Calcium/calmodulin-dependent protein kinase kinase 2 (Homo sapiens) (UniProt Q96RR4). Put plainly: Binding affinity to wild-type human partial length CAMKK2 (D65 to V471 residues) expressed in bacterial expression system assessed as residual binding level at 1 uM by Kinomescan method relative to control.
Experiment [4] addresses Cyclin-dependent kinase 19 (Homo sapiens) (UniProt Q9BWU1). The experiment is described as follows: Binding affinity to wild-type human partial length CDK11 (M1 to N360 residues) expressed in bacterial expression system assessed as residual binding level at 1 uM by Kinomescan method relative to control.
The target in experiment [5] is Serine/threonine-protein kinase DCLK2 (Homo sapiens) (UniProt Q8N568). Put plainly: Binding affinity to wild-type human partial length DCAMKL2 (K273 to V664 residues) expressed in bacterial expression system assessed as residual binding level at 1 uM by Kinomescan method relative to control.
The target of experiment [6] is Serine/threonine-protein kinase DCLK3 (Homo sapiens) (UniProt Q9C098). The experiment is described as follows: Binding affinity to wild-type human partial length DCAMKL3 (E140 to V628 residues) expressed in bacterial expression system assessed as residual binding level at 1 uM by Kinomescan method relative to control.
Experiment [7] has as its target Myotonin-protein kinase (Homo sapiens) (UniProt Q09013). Put plainly: Binding affinity to wild-type human partial length DMPK (V47 to V415 residues) expressed in bacterial expression system assessed as residual binding level at 1 uM by Kinomescan method relative to control.
Experiment [8] deals with Epidermal growth factor receptor (Homo sapiens), P00533 [G719S]. Put plainly: Binding affinity to human partial length EGFR G719S mutant (R669 to V1011 residues) expressed in bacterial expression system assessed as residual binding level at 1 uM by Kinomescan method relative to control.
In experiment [9] the target is Ephrin type-A receptor 6 (Homo sapiens) (UniProt Q9UF33). Put plainly: Binding affinity to wild-type human partial length EPHA6 (Y700 to E1046 residues) expressed in bacterial expression system assessed as residual binding level at 1 uM by Kinomescan method relative to control.
The target of experiment [10] is Ephrin type-B receptor 1 (Homo sapiens) (UniProt P54762). The experiment is described as follows: Binding affinity to wild-type human partial length EPHB1 (P589 to T911 residues) expressed in bacterial expression system assessed as residual binding level at 1 uM by Kinomescan method relative to control.
In experiment [11] the target is Mitogen-activated protein kinase 6 (Homo sapiens) (UniProt Q16659). The experiment is described as follows: Binding affinity to wild-type human partial length ERK3 (M1 to P413 residues) expressed in bacterial expression system assessed as residual binding level at 1 uM by Kinomescan method relative to control.
Experiment [12] addresses Focal adhesion kinase 1 (Homo sapiens) (UniProt Q05397). The experiment is described as follows: Binding affinity to wild-type human partial length FAK (D402 to R696 residues) expressed in bacterial expression system assessed as residual binding level at 1 uM by Kinomescan method relative to control.
In experiment [13] the target is Tyrosine-protein kinase Fes/Fps (Homo sapiens) (UniProt P07332). Put plainly: Binding affinity to wild-type human partial length FES (I527 to R822 residues) expressed in bacterial expression system assessed as residual binding level at 1 uM by Kinomescan method relative to control.
The target of experiment [14] is Inhibitor of nuclear factor kappa-B kinase subunit beta (Homo sapiens) (UniProt O14920). Put plainly: Binding affinity to wild-type human full length IKK-beta (M1 to S756 residues) expressed in mammalian expression system assessed as residual binding level at 1 uM by Kinomescan method relative to control.
Experiment [15] has as its target Mitogen-activated protein kinase kinase kinase 15 (Homo sapiens) (UniProt Q6ZN16). The experiment is described as follows: Binding affinity to wild-type human partial length MAP3K15 (T625 to L932 residues) expressed in mammalian expression system assessed as residual binding level at 1 uM by Kinomescan method relative to control.
The target of experiment [16] is Mitogen-activated protein kinase kinase kinase 10 (Homo sapiens) (UniProt Q02779). Put plainly: Binding affinity to wild-type human partial length MLK2 (V52 to W380 residues) expressed in bacterial expression system assessed as residual binding level at 1 uM by Kinomescan method relative to control.
For experiment [17], the target named is Myosin-IIIa (Homo sapiens) (UniProt Q8NEV4). Put plainly: Binding affinity to wild-type human partial length MYO3A (M1 to K338 residues) expressed in bacterial expression system assessed as residual binding level at 1 uM by Kinomescan method relative to control.
In experiment [18] the target is Serine/threonine-protein kinase Nek2 (Homo sapiens) (UniProt P51955). Put plainly: Binding affinity to wild-type human partial length NEK2 (M1 to K309 residues) expressed in bacterial expression system assessed as residual binding level at 1 uM by Kinomescan method relative to control.
Experiment [19] concerns Phosphatidylinositol 4,5-bisphosphate 3-kinase catalytic subunit alpha isoform (Homo sapiens), P42336 [C420R]. Put plainly: Binding affinity to human partial length PIK3CA C420R mutant (R108 to N1068 residues) expressed in mammalian expression system assessed as residual binding level at 1 uM by Kinomescan method relative to control.
Experiment [20] has as its target Phosphatidylinositol 4,5-bisphosphate 3-kinase catalytic subunit beta isoform (Homo sapiens) (UniProt P42338). The experiment is described as follows: Binding affinity to wild-type human partial length PIK3CB (P118 to S1070 residues) expressed in mammalian expression system assessed as residual binding level at 1 uM by Kinomescan method relative to control.
The target of experiment [21] is Ribosomal protein S6 kinase alpha-3 (Homo sapiens) (UniProt P51812). The experiment is described as follows: Binding affinity to wild-type human partial length N-terminal RSK2 kinase domain 1 (M1 to D394 residues) expressed in mammalian expression system assessed as residual binding level at 1 uM by Kinomescan method relative to control.
For experiment [22], the target named is SNF-related serine/threonine-protein kinase (Homo sapiens) (UniProt Q9NRH2). The experiment is described as follows: Binding affinity to wild-type human partial length SNRK (M1 to E339 residues) expressed in mammalian expression system assessed as residual binding level at 1 uM by Kinomescan method relative to control.
Experiment [23] has as its target Serine/threonine-protein kinase TAO2 (Homo sapiens) (UniProt Q9UL54). Put plainly: Binding affinity to wild-type human partial length TAOK2 (M1 to A320 residues) expressed in mammalian expression system assessed as residual binding level at 1 uM by Kinomescan method relative to control.
Experiment [24] addresses Serine/threonine-protein kinase tousled-like 1 (Homo sapiens) (UniProt Q9UKI8). The experiment is described as follows: Binding affinity to wild-type human partial length TLK1 (K447 to A754 residues) expressed in bacterial expression system assessed as residual binding level at 1 uM by Kinomescan method relative to control.

Myotonin-protein kinase (Homo sapiens), sequence (Q09013 whole entry, the tested form may be a part): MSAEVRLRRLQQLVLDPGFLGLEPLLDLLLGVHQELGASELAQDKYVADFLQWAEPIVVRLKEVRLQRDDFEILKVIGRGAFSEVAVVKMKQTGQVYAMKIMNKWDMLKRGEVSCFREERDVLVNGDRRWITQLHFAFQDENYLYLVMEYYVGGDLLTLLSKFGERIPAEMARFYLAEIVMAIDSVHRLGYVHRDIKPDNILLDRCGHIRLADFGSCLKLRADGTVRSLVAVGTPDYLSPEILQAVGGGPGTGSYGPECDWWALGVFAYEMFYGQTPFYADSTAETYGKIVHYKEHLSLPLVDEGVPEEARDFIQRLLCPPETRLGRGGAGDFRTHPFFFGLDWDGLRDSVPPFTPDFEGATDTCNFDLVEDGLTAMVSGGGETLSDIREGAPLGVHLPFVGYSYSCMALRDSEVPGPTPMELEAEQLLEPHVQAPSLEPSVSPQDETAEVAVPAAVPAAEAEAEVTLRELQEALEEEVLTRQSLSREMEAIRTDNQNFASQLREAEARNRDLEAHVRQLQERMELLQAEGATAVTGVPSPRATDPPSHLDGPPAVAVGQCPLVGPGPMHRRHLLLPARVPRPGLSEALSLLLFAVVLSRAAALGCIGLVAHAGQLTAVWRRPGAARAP
Ribosomal protein S6 kinase alpha-3 (Homo sapiens), sequence (P51812 whole entry, the tested form may be a part): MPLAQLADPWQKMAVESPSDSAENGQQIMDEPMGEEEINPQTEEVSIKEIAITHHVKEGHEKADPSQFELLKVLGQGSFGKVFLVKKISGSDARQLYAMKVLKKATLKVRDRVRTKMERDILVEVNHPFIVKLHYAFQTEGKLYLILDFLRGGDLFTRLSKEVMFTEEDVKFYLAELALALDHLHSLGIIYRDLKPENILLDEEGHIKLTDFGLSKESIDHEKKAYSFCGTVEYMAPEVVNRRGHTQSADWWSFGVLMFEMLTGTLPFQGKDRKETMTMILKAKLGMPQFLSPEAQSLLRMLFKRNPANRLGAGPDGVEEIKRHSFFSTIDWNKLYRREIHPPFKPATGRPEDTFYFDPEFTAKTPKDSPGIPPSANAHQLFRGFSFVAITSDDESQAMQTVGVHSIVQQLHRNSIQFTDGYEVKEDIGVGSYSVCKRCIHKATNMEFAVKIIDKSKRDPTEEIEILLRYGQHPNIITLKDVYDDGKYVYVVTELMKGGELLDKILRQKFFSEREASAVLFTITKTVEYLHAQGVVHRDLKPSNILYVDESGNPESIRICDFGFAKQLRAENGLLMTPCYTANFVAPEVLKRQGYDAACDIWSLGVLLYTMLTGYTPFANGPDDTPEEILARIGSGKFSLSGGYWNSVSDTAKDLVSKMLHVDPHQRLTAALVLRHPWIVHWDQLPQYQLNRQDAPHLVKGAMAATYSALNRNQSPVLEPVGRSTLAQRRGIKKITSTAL
Focal adhesion kinase 1 (Homo sapiens), sequence (Q05397 2-1052 limits assumed): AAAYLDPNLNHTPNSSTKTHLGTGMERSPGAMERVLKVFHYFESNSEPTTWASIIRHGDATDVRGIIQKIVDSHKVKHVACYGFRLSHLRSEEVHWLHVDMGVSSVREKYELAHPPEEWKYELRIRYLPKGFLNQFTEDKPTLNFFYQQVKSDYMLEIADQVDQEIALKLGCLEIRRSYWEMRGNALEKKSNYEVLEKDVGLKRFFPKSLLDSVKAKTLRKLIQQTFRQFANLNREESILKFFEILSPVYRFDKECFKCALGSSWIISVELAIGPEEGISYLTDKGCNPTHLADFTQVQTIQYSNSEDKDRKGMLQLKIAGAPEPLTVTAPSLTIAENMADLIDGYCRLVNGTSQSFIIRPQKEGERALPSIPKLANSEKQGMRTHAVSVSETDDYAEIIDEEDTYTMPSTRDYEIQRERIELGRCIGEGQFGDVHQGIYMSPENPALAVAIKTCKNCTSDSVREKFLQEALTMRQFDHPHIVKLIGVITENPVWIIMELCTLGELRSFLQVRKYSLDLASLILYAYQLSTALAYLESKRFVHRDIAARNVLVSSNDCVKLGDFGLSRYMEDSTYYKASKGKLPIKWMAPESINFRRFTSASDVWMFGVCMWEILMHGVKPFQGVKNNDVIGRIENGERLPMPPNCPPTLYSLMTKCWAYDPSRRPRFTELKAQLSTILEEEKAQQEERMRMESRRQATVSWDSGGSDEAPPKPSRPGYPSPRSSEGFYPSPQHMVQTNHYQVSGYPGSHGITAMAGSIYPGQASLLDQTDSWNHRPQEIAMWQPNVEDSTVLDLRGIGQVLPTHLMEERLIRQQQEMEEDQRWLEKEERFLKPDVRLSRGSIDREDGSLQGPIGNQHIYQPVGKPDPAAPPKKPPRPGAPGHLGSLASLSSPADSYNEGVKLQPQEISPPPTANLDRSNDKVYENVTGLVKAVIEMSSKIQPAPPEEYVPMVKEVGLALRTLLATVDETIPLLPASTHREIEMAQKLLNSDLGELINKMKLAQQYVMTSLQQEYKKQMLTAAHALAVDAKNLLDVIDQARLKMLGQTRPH
Phosphatidylinositol 4,5-bisphosphate 3-kinase catalytic subunit beta isoform (Homo sapiens), sequence (P42338 whole entry, looked up, the tested form may be a part, canonical isoform): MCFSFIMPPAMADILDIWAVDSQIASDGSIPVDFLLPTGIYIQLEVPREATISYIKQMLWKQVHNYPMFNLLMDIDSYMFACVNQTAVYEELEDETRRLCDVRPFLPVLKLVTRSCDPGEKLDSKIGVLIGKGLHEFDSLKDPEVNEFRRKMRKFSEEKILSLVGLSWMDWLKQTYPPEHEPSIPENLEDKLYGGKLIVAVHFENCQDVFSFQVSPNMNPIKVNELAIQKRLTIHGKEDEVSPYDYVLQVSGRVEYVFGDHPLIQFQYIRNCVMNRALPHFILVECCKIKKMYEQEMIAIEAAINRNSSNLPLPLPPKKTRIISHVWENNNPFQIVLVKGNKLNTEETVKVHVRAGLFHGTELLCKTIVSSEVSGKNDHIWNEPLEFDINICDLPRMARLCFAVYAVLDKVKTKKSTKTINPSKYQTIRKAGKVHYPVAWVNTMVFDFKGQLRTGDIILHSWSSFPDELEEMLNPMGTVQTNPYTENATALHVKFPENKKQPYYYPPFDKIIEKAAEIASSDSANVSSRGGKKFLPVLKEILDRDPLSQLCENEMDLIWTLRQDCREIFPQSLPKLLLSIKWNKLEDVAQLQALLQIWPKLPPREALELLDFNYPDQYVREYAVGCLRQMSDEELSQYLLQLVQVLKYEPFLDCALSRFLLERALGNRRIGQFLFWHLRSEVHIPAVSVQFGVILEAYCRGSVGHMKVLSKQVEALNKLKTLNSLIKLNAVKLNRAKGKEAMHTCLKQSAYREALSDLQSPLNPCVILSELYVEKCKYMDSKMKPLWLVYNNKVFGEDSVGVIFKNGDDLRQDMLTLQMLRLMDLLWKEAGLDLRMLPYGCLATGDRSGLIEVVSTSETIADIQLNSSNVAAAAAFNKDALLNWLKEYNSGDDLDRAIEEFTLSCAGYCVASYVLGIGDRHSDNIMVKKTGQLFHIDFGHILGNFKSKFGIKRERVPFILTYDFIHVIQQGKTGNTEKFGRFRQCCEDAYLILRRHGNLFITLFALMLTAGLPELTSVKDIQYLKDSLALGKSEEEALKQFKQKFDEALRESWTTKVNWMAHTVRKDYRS
Serine/threonine-protein kinase tousled-like 1 (Homo sapiens), sequence (Q9UKI8 whole entry, the tested form may be a part): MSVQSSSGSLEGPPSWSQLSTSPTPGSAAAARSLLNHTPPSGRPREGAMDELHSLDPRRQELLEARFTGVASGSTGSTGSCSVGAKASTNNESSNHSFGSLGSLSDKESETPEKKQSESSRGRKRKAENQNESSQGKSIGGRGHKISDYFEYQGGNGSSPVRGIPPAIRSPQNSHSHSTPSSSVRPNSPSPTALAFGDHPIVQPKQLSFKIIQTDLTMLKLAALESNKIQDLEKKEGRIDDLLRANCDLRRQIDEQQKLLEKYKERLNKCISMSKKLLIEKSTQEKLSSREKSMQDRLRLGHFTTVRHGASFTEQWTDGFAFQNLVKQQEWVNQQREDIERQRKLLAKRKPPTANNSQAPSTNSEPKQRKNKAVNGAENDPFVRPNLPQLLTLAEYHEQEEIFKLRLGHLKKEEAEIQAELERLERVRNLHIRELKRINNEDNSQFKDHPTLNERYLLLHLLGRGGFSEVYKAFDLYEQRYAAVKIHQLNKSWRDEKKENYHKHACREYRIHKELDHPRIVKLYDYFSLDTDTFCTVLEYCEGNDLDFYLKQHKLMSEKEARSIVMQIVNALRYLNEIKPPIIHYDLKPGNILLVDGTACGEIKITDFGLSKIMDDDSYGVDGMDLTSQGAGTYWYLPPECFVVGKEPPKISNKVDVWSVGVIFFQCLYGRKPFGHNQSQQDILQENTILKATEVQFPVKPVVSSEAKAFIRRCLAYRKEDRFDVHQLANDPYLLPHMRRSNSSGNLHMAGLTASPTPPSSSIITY
Cyclin-dependent kinase 19 (Homo sapiens), sequence (Q9BWU1 whole entry, the tested form may be a part): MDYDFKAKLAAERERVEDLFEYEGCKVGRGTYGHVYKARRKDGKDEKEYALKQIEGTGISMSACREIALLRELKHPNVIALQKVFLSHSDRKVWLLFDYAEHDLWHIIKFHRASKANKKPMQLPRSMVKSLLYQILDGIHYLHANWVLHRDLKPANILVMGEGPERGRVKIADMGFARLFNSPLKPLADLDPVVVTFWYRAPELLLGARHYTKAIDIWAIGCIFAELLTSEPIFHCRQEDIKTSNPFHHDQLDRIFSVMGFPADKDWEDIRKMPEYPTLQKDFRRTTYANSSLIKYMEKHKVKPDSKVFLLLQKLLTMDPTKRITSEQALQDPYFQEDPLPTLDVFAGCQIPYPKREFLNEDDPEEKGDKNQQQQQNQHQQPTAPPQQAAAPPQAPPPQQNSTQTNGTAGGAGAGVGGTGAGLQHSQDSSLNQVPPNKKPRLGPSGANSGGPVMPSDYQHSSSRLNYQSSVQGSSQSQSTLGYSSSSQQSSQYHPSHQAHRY

As to `CC(C)Nc1sc(C(=O)c2ccc(Cl)s2)c(N)c1C#N`, the Activity was found to be 100% in [1]; 74% in [2]; 76% in experiment [3]; 83% in experiment [4]; 100% in experiment [5]; 100% in [6]. Moreover, the Activity in experiment [7] is 100%; in [8], 96%; in experiment [9], 86%; in experiment [10], 96%; in [11], 100%; in experiment [12], 74%. In addition, the Activity in experiment [13] is 98%; in experiment [14] it was 100%; in experiment [15] it was 100%; in experiment [16] it was 100%; in experiment [17], 75%; in [18] it was 85%. In addition, the Activity was determined as 100% in experiment [19]; 90% in experiment [20]; 99% in experiment [21]; 91% in experiment [22]; 100% in experiment [23]; 100% in [24].
